{
  "source": "patent US20240199535A1",
  "about": "“DEUTERATED DHODH INHIBITORS” (priority 2021, published 2024)",
  "key": {"SARS-CoV-2 d6-YFP": {"system": "SARS-CoV-2 d6-YFP", "assay": "Combinatorial drug assessment with EIDD-1931, viral replication inhibition assay", "format": "cell-based"}, "SARS-CoV-2": {"system": "SARS-CoV-2", "assay": "Antiviral activity on SARS-CoV-2, viral replication (YFP) assay", "format": "cell-based", "conditions": "Severe acute respiratory syndrome coronavirus 2, read-out: EC50 range"}, "in vitro [1]": {"assay": "in vitro", "conditions": "human, microsomes"}, "in vitro [2]": {"assay": "in vitro", "conditions": "male, rat, microsomes"}, "in vivo [3]": {"assay": "in vivo", "conditions": "CC7BL/6J, mouse, po, 5 mg/kg", "experimental": "The pharmacokinetics of the compounds of the present invention was evaluated in 3 male and 3 female mice (CC7BL/6J, 8 week old) after oral cassette dosing. Dose was 5 mg/kg, application volume was 5 mL/kg and vehicle was 5% Solutol, 95% NaCl solution (at 0.9% saline concentration). At each designated time point (0, 0.25, 0.5, 1, 2, 4, 8 h after dosing), 20 μL whole blood were collected from the tail vein into Li-heparin tubes, frozen on dry ice within 1-2 minutes of sampling and stored at −20° C. until processed for LC-MS analysis."}, "in vivo [4]": {"assay": "in vivo", "conditions": "Han Wistar, rat", "experimental": "Rats are provided with a catheter in the jugular vein (2-3 days prior to blood sampling). At each designated time point (0, 1, 2, 4, 8 and 24 h after dosing), 100 μL blood were collected into Li-heparin tubes, stored on ice until centrifugation (10 minutes at 3000 g, 4° C.) and plasma was prepared within 45 min after collection, frozen at −20° C. and stored at this temperature until processed for LC-MS analysis."}},
  "note": "pEC50: −log10 of the molar value.",
  "data": [
    {"smiles": "[2H]C([2H])([2H])Oc1cccc(-c2cc(F)c(NC(=O)C3=C(C(=O)O)CCC3)c(F)c2)c1", "note": "[Example 9, 2-((3,5-Difluoro-3′-(methoxy-d3)-[1,1′-biphenyl]-4-yl)carbamoyl)cyclopent-1-ene-1-carboxylic Acid]", "values": [
      {"measurement": "antiviral effect on SARS-CoV-2 in combination with nucleoside analogue EIDD-1931", "setting": "SARS-CoV-2 d6-YFP", "value": "synergistic antiviral effects"},
      {"measurement": "pEC50", "setting": "SARS-CoV-2", "value": "4.60 to 5.00"}
    ]},
    {"smiles": "[2H]C([2H])([2H])Oc1cccc(-c2ccc(NC(=O)C3=C(C(=O)O)CCC3)c(F)c2)c1", "note": "[Example 1, 2-((3-Fluoro-3′-(methoxy-d3)-[1,1′-biphenyl]-4-yl)carbamoyl)cyclopent-1-ene-1-carboxylic Acid]", "values": [
      {"measurement": "microsomal CLint", "setting": "in vitro [1]; both", "value": 0.96, "unit": "µL/min/mg"},
      {"measurement": "microsomal CLint", "setting": "in vitro [1]; female", "value": 5.02, "unit": "µL/min/mg"},
      {"measurement": "microsomal CLint", "setting": "in vitro [1]; male", "value": 7.69, "unit": "µL/min/mg"},
      {"measurement": "microsomal CLint", "setting": "in vitro [2]", "value": 13.4, "unit": "µL/min/mg"},
      {"measurement": "AUC", "setting": "in vivo [3]; female", "value": 5740, "unit": "ng·h/mL"},
      {"measurement": "Cmax", "setting": "in vivo [3]; female", "value": 3440, "unit": "ng/mL"},
      {"measurement": "half-life", "setting": "in vivo [3]; female", "value": 1.6, "unit": "h"},
      {"measurement": "AUC", "setting": "in vivo [3]; male", "value": 5110, "unit": "ng·h/mL"},
      {"measurement": "Cmax", "setting": "in vivo [3]; male", "value": 4110, "unit": "ng/mL"},
      {"measurement": "half-life", "setting": "in vivo [3]; male", "value": 1.7, "unit": "h"},
      {"measurement": "% AUCextra", "setting": "in vivo [4]; female, iv, 1 mg/kg", "value": 13, "unit": "%"},
      {"measurement": "AUC(0-inf)", "setting": "in vivo [4]; female, iv, 1 mg/kg", "value": 80700, "unit": "ng·h/mL"},
      {"measurement": "AUC(0-t)", "setting": "in vivo [4]; female, iv, 1 mg/kg", "value": 66200, "unit": "ng·h/mL"},
      {"measurement": "C0", "setting": "in vivo [4]; female, iv, 1 mg/kg", "value": 7010, "unit": "ng/mL"},
      {"measurement": "Cz", "setting": "in vivo [4]; female, iv, 1 mg/kg", "value": 943, "unit": "ng/mL"},
      {"measurement": "Vz/f", "setting": "in vivo [4]; female, iv, 1 mg/kg", "value": 0.017, "unit": "L/kg"},
      {"measurement": "t1/2z", "setting": "in vivo [4]; female, iv, 1 mg/kg", "value": 9.9, "unit": "h"},
      {"measurement": "tz", "setting": "in vivo [4]; female, iv, 1 mg/kg", "value": 24, "unit": "h"},
      {"measurement": "bioavailability", "setting": "in vivo [4]; female, po", "value": 75.3, "unit": "%"},
      {"measurement": "% AUCextra", "setting": "in vivo [4]; female, po, 5 mg/kg", "value": 17, "unit": "%"},
      {"measurement": "AUC(0-inf)", "setting": "in vivo [4]; female, po, 5 mg/kg", "value": 291000, "unit": "ng·h/mL"},
      {"measurement": "AUC(0-t)", "setting": "in vivo [4]; female, po, 5 mg/kg", "value": 249000, "unit": "ng·h/mL"},
      {"measurement": "CL/F", "setting": "in vivo [4]; female, po, 5 mg/kg", "value": 3.77, "unit": "mL/min/kg"},
      {"measurement": "Cmax", "setting": "in vivo [4]; female, po, 5 mg/kg", "value": 19700, "unit": "ng/mL"},
      {"measurement": "Cz", "setting": "in vivo [4]; female, po, 5 mg/kg", "value": 3536, "unit": "ng/mL"},
      {"measurement": "Tmax", "setting": "in vivo [4]; female, po, 5 mg/kg", "value": 2, "unit": "h"},
      {"measurement": "Vd/F", "setting": "in vivo [4]; female, po, 5 mg/kg", "value": 0.016, "unit": "L/kg"},
      {"measurement": "t1/2z", "setting": "in vivo [4]; female, po, 5 mg/kg", "value": 9.1, "unit": "h"},
      {"measurement": "tz", "setting": "in vivo [4]; female, po, 5 mg/kg", "value": 24, "unit": "h"},
      {"measurement": "% AUCextra", "setting": "in vivo [4]; male, iv, 1 mg/kg", "value": 22, "unit": "%"},
      {"measurement": "AUC(0-inf)", "setting": "in vivo [4]; male, iv, 1 mg/kg", "value": 47900, "unit": "ng·h/mL"},
      {"measurement": "AUC(0-t)", "setting": "in vivo [4]; male, iv, 1 mg/kg", "value": 42600, "unit": "ng·h/mL"},
      {"measurement": "C0", "setting": "in vivo [4]; male, iv, 1 mg/kg", "value": 5540, "unit": "ng/mL"},
      {"measurement": "Cz", "setting": "in vivo [4]; male, iv, 1 mg/kg", "value": 437, "unit": "ng/mL"},
      {"measurement": "Vz/f", "setting": "in vivo [4]; male, iv, 1 mg/kg", "value": 0.01, "unit": "L/kg"},
      {"measurement": "t1/2z", "setting": "in vivo [4]; male, iv, 1 mg/kg", "value": 7.9, "unit": "h"},
      {"measurement": "tz", "setting": "in vivo [4]; male, iv, 1 mg/kg", "value": 24, "unit": "h"},
      {"measurement": "bioavailability", "setting": "in vivo [4]; male, po", "value": 86, "unit": "%"},
      {"measurement": "% AUCextra", "setting": "in vivo [4]; male, po, 5 mg/kg", "value": 24, "unit": "%"},
      {"measurement": "AUC(0-inf)", "setting": "in vivo [4]; male, po, 5 mg/kg", "value": 210000, "unit": "ng·h/mL"},
      {"measurement": "AUC(0-t)", "setting": "in vivo [4]; male, po, 5 mg/kg", "value": 183000, "unit": "ng·h/mL"},
      {"measurement": "CL/F", "setting": "in vivo [4]; male, po, 5 mg/kg", "value": 3.82, "unit": "mL/min/kg"},
      {"measurement": "Cmax", "setting": "in vivo [4]; male, po, 5 mg/kg", "value": 14600, "unit": "ng/mL"},
      {"measurement": "Cz", "setting": "in vivo [4]; male, po, 5 mg/kg", "value": 1525, "unit": "ng/mL"},
      {"measurement": "Tmax", "setting": "in vivo [4]; male, po, 5 mg/kg", "value": 2, "unit": "h"},
      {"measurement": "Vd/F", "setting": "in vivo [4]; male, po, 5 mg/kg", "value": 0.008, "unit": "L/kg"},
      {"measurement": "t1/2z", "setting": "in vivo [4]; male, po, 5 mg/kg", "value": 6.6, "unit": "h"},
      {"measurement": "tz", "setting": "in vivo [4]; male, po, 5 mg/kg", "value": 24, "unit": "h"}
    ]}
  ]
}
